pIC50: −log10 of the molar value. Numbered stars: 1 amine (or outer) side, 2 acyl side, 3 side chain; on linkers, the order of the positions; unused ones are H or OH. Bridge positions count the residues as written; N and C are the ends. Square brackets hold non-standard residues; d marks the D form. Peptide text beside a SMILES is read from it. * marks the point of attachment. hPhe(3,5-F2-4-CF3) = N[C@@H](CCc1cc(F)c(C(F)(F)F)c(F)c1)C(=O)O; hPhe(3-Cl-4-CF3) = N[C@@H](CCc1ccc(C(F)(F)F)c(Cl)c1)C(=O)O; X7 = O=C([C@@H]1C[C@H](N2CCC(F)(F)CC2)CN1[*:1])[*:2]; NMePhe(4-Me) = CN[C@@H](Cc1ccc(C)cc1)C(=O)O; NMePhe(2-Cl) = CN[C@@H](Cc1ccccc1Cl)C(=O)O; NMedβ3hAla = C[C@H](CC(=O)[*:2])N(C)[*:1]; NMeGly(cPent) = CN[C@H](C(=O)O)C1CCCC1; NMeCha = CN[C@@H](CC1CCCCC1)C(=O)O; Hyp = O=C(O)[C@@H]1C[C@@H](O)CN1; NMeChg = CN[C@H](C(=O)O)C1CCCCC1; NMeI = CC[C@H](C)[C@H](NC)C(=O)O; NMeD = CN[C@@H](CC(=O)O)C(=O)O; NMeL = CN[C@@H](CC(C)C)C(=O)O; NMeNva = CCC[C@H](NC)C(=O)O; NMeV = CN[C@H](C(=O)O)C(C)C; NMeC = CN[C@@H](CS)C(=O)O; NMeA = CN[C@@H](C)C(=O)O; Piperidide = C1CCN(*)CC1; Pyrrolidide = C1CCN(*)C1; Ac5c = NC1(C(=O)O)CCCC1; Aze = O=C(O)[C@@H]1CCN1; Sar = CNCC(=O)O
Legend:
[1] = target: protein-protein interaction between Kras and SOS1 (biotin-tagged human Kras loaded with GDP, His-tagged human SOS1) (Homo sapiens (Human), UniProt P01116, G12D); assay: Protein-protein interaction inhibition between Kras and SOS1 (KrasG12D-SOS PPI) using AlphaScreen; assay type: biochemical; conditions: AlphaScreen; biotin-tagged human Kras loaded with GDP, His-tagged human SOS1; read-out: KRAS G12D-SOS PPI IC50;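 note: kras produced in E. coli, Ni-coupled donor beads and streptavidin acceptor beads, excitation 680 nm with emission detected at 520–620 nm via singlet oxygen transfer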
[2] = tested on: Human pancreatic cancer cell line AsPC-1 (G12D mutation Kras); assay: AsPC-1 cell growth inhibition (AsPC-1 CGI); assay type: cell-based; conditions: read-out: AsPC-1 cell growth inhibition, 50% growth inhibitory concentration (IC50 value); 96 hours, CellTiter-Glo, values classified in ranges
Description: Test compounds were serially dilated with dimethyl sulfoxide, and 200 nL was then dispensed to a U-bottom 96-well plate using Labcyte Echo. […] The cell suspension was dispensed to a. plate containing a test compound at 100 μL per well and incubated at 37° C. in a 5% carbon dioxide gas incubator. 96 hours later, 80 μL of CellTiter-Glo (Promega) was added to each well and fluorescence was measured.

Structure (SMILES)	pIC50 [1]	pIC50 [2]
CCC[C@H]1C(=O)N[C@@H]([C@@H](C)CC)C(=O)N(C)CC(=O)N(C)CC(=O)N(C)[C@@H](Cc2ccc(C)cc2)C(=O)N(C)CC(=O)N[C@@H](CCc2cc(F)c(C(F)(F)F)c(F)c2)C(=O)N2C[C@H](OCC)C[C@H]2C(=O)NC2(CCCC2)C(=O)N(C)[C@@H](C2CCCCC2)C(=O)N(C)[C@H](C(=O)N2CCCC2)CC(=O)N1C [Compound 1224] ([NMeNva]I[Sar][Sar][NMePhe(4-Me)][Sar][hPhe(3,5-F2-4-CF3)][Hyp](Et)[Ac5c][NMeChg][NMeD]-Pyrrolidide; lactam N-11)	9.17	≥ 7.70
CC[C@H](C)[C@@H]1NC(=O)[C@H](CC(C)C)N(C)C(=O)CSC[C@@H](C(=O)N(C)C)N(C)C(=O)[C@H](C2CCCC2)N(C)C(=O)C2(CCCC2)NC(=O)[C@@H]2CCCN2C(=O)[C@H](CCc2ccc(C(F)(F)F)c(Cl)c2)NC(=O)CN(C)C(=O)[C@H](CC2CCCCC2)N(C)C(=O)CN(C)C(=O)CN(C)C1=O [Compound 2175] ({CH2CO}-[NMeL]I[Sar][Sar][NMeCha][Sar][hPhe(3-Cl-4-CF3)]P[Ac5c][NMeGly(cPent)][NMeC]-NMe2; thioether N-11)	6.74	< 6.30
CC[C@H](C)[C@@H]1NC(=O)[C@H](CC(C)C)N(C)C(=O)C[C@@H](C(=O)N2CCCCC2)N(C)C(=O)[C@H](C(C)C)N(C)C(=O)[C@H](C(C)C)NC(=O)[C@@H]2CCCN2C(=O)[C@H](CCc2ccc(C(F)(F)F)c(Cl)c2)NC(=O)CN(C)C(=O)[C@H](CC2CCCCC2)N(C)C(=O)[C@@H]2CCN2C(=O)[C@H](C)N(C)C1=O [Compound 741] ([NMeL]I[NMeA][Aze][NMeCha][Sar][hPhe(3-Cl-4-CF3)]PV[NMeV][NMeD]-Piperidide; lactam N-11)	7.07	< 6.30
CC[C@H](C)[C@@H]1NC(=O)[C@H](C)N(C)C(=O)C[C@@H](C(=O)N2CCCCC2)N(C)C(=O)[C@H](C(C)C)N(C)C(=O)C2(CCCC2)NC(=O)[C@@H]2C[C@H](N3CCC(F)(F)CC3)CN2C(=O)[C@H](CCc2ccc(C(F)(F)F)c(Cl)c2)NC(=O)CN(C)C(=O)[C@H](CC2CCCCC2)N(C)C(=O)CN(C)C(=O)CN(C)C1=O [Compound 460] ([NMeA]I[Sar][Sar][NMeCha][Sar][hPhe(3-Cl-4-CF3)][X7][Ac5c][NMeV][NMeD]-Piperidide; lactam N-11)	9.00	< 6.30
CC[C@H](C)[C@@H]1NC(=O)[C@H](CC(C)C)N(C)C(=O)C[C@@H](C(=O)N2CCCCC2)N(C)C(=O)[C@H](C2CCCCC2)N(C)C(=O)C2(CCCC2)NC(=O)[C@H](C)NC(=O)[C@H](CCc2ccc(C(F)(F)F)c(Cl)c2)NC(=O)CN(C)C(=O)[C@H](CC2CCCCC2)N(C)C(=O)CN(C)C(=O)CN(C)C1=O [Compound 205] ([NMeL]I[Sar][Sar][NMeCha][Sar][hPhe(3-Cl-4-CF3)]A[Ac5c][NMeChg][NMeD]-Piperidide; lactam N-11)	9.31	< 6.30
CC[C@H](C)[C@@H]1NC(=O)[C@H](CC(C)C)N(C)C(=O)C[C@@H](C(=O)N(C)C)N(C)C(=O)[C@H]([C@@H](C)CC)N(C)C(=O)C2(CCCC2)NC(=O)[C@@H]2CCCN2C(=O)[C@H](CCc2ccc(C(F)(F)F)c(Cl)c2)NC(=O)CN(C)C(=O)[C@H](Cc2ccc(C)cc2)N(C)C(=O)[C@@H]2CCN2C(=O)[C@H](C)NC1=O [Compound 840] ([NMeL]IA[Aze][NMePhe(4-Me)][Sar][hPhe(3-Cl-4-CF3)]P[Ac5c][NMeI][NMeD]-NMe2; lactam N-11)	8.92	≥ 7.70
CC[C@H](C)[C@@H]1NC(=O)[C@H](C)N(C)C(=O)C[C@@H](C(=O)N2CCCCC2)N(C)C(=O)[C@H](C(C)C)N(C)C(=O)C2(CCCC2)NC(=O)[C@H](Cc2ccccc2Cl)N(C)C(=O)[C@H](CCc2ccc(C(F)(F)F)c(Cl)c2)NC(=O)CN(C)C(=O)[C@H](CC2CCCCC2)N(C)C(=O)CN(C)C(=O)CN(C)C1=O [Compound 963] ([NMeA]I[Sar][Sar][NMeCha][Sar][hPhe(3-Cl-4-CF3)][NMePhe(2-Cl)][Ac5c][NMeV][NMeD]-Piperidide; lactam N-11)	7.89	< 6.30
CC[C@H](C)[C@@H]1NC(=O)[C@H](CC(C)C)N(C)C(=O)C[C@@H](C)N(C)C(=O)[C@H]([C@@H](C)CC)N(C)C(=O)C2(CCCC2)NC(=O)[C@@H]2CCCN2C(=O)[C@H](CCc2ccc(C(F)(F)F)c(Cl)c2)NC(=O)CN(C)C(=O)[C@H](Cc2ccc(C)cc2)N(C)C(=O)[C@@H]2CCN2C(=O)[C@H](C)N(C)C1=O [Compound 1793] (cyclo([Ac5c][NMeI][NMedβ3hAla][NMeL]I[NMeA][Aze][NMePhe(4-Me)][Sar][hPhe(3-Cl-4-CF3)]P))	8.72	≥ 7.70
